Results reported in patent US10669272B2, “Substituted naphthyridinone compounds useful as T cell activators” (BRISTOL-MYERS SQUIBB COMPANY, priority 2018, dated 2020).
Where two headings read alike, the source gives them in different places.

How the values were obtained:
human DGKα = biological target: T1, human DGKα (Homo sapiens, UniProt P23743); assay: DGKα LIPGLO assay (extruded liposome substrate), in vitro DGK inhibition; type: biochemical; conditions: read-out: DGKa LIPGLO IC50
T1 construct: TVMV protease cleavage site (C); Hexa-His (C); made in house; host or cells: Sf9 insect cells (baculovirus, Bac-to-Bac)

human DGKζ = biological target: T2, human DGKζ (Homo sapiens, UniProt Q13574); assay: DGKζ LIPGLO assay (extruded liposome substrate), in vitro DGK inhibition; type: biochemical; conditions: read-out: DGKz LIPGLO IC50
T2 construct: TVMV protease cleavage site (C); Hexa-His (C); made in house; host or cells: Sf9 insect cells (baculovirus, Bac-to-Bac)

Human venous whole blood = assay: Human whole blood IFN-γ assay; type: cell-based; conditions: human whole blood, read-out: INFg Whole Blood Normalized Agonist EC50;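 further: blood from healthy donors exposed to compound for 1 h before stimulation with anti-CD3 and anti-CD28 at 1 µg/mL each, IFN-γ quantified in supernatant by AlphaLISA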
Procedure: Human Whole Blood IFN-γ Assay
Human venous whole blood (22.5 μL per well), obtained from healthy donors, was pre-treated with compounds for one hour at 37° C. in a humidified 95% air/5% CO2 incubator. The blood was stimulated with 2.5 μL anti-human CD3 and anti-CD28 mAb at a final concentration of 1 μg/mL each for 24 hours at 37° C. IFN-γ in the supernatants was measured using AlphLISA kit (Cat # AL217).

[1] = normalized to 3 μM reference compound with anti-CD3 plus anti-CD28 as 100% activation
[2] = anti-CD3 plus anti-CD28, 24 hours, 3 μM reference compound = 100% activation
[3] = Homo sapiens, 24 h, normalized to 3 μM reference compound with anti-CD3 plus anti-CD28 as 100% activation

T1 sequence (P23743 with tags, fused parts or gaps): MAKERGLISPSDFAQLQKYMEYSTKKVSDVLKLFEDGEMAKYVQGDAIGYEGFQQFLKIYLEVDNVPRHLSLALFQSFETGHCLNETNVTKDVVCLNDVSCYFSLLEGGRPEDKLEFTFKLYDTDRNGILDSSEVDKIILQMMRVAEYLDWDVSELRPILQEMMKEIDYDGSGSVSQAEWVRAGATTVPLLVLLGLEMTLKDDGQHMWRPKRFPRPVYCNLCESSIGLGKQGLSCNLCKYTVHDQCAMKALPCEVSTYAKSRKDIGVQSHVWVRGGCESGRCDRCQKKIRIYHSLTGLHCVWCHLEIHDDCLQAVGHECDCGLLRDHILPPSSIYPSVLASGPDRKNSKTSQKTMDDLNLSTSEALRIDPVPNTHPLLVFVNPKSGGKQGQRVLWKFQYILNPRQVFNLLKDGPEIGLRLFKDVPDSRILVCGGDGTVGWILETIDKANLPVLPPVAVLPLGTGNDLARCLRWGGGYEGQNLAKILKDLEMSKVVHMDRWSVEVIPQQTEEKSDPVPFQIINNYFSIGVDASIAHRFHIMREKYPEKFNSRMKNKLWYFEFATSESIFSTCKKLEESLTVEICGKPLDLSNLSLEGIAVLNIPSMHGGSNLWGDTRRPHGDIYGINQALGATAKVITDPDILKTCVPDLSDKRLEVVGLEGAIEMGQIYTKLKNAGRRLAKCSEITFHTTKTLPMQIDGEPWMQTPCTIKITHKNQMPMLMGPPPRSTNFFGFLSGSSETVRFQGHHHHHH
T2 sequence (Q13574 with tags, fused parts or gaps isoform Q13574-4): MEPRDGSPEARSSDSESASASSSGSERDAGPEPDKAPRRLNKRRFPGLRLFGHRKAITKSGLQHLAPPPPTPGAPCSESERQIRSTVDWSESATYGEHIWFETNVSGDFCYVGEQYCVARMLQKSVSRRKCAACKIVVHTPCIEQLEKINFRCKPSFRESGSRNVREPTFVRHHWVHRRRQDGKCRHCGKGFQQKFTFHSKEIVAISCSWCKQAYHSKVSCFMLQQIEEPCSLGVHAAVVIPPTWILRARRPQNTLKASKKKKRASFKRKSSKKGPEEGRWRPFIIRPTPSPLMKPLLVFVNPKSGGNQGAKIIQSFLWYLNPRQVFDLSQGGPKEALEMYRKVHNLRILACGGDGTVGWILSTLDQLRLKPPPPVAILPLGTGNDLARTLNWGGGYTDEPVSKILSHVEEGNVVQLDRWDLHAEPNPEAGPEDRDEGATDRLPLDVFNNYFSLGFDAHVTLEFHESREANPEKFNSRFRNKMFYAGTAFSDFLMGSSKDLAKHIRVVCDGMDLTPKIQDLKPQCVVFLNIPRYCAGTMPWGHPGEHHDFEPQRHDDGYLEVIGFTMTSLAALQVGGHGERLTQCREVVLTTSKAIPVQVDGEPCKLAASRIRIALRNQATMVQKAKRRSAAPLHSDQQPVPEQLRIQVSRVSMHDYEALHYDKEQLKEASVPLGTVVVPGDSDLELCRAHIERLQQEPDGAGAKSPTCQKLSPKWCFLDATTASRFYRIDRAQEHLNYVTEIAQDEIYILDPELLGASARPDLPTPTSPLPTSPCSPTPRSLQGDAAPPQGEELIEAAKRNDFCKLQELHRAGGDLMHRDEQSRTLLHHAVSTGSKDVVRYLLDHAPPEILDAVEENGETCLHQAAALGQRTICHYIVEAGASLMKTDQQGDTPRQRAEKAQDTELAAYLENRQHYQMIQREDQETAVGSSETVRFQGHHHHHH

| SMILES | IC50 (human DGKα; liposome (LIPGLO) assay) | IC50 (human DGKζ; liposome (LIPGLO) assay) | EC50 (Human venous whole blood; [1]) | IC50 (human DGKα; DGKα liposome (LIPGLO) assay) | IC50 (human DGKζ; DGKζ liposome (LIPGLO) assay) | EC50 (Human venous whole blood; [2]) | EC50 (Human venous whole blood; [3]) | EC50 (Human venous whole blood; Homo sapiens, 24 h, anti-CD3 plus anti-CD28, 24 hours, 3 μM reference compound = 100% activation) |
| --- | --- | --- | --- | --- | --- | --- | --- | --- |
| CCC(c1cc(OC(F)(F)F)ccc1F)N1C[C@H](CC)N(c2cc(=O)n(C)c3ccc(C#N)nc23)C[C@H]1C (single isomer, unassigned) [Example 1380] | 850 nM | 180 nM | 470 nM |  |  |  |  |  |
| CCC(c1ccc(OC(C)C)cc1)N1C[C@H](C)N(c2cc(=O)n(C)c3ccc(C#N)nc23)C[C@H]1C (single isomer, unassigned) [Example 1449] | 610 nM | 350 nM | 870 nM |  |  |  |  |  |
| C[C@@H]1CN(c2cc(=O)n(C)c3ccc(C#N)nc23)[C@@H](C)CN1C(c1ccc(Br)cc1)c1nc(C2CC2)no1 (stereo partly drawn) [Example 760] |  |  |  | 70 nM | 22 nM | 48 nM |  |  |
| COc1cc(F)c(C(C)N2C[C@H](C)N(c3cc(=O)n(C)c4ccc(C#N)nc34)C[C@H]2C)c(F)c1 (stereo partly drawn) [Example 1242] | 200 nM | 19 nM |  |  |  |  | 180 nM |  |
| C[C@@H]1CN(c2c(C#N)c(=O)n(C)c3ccc(C#N)nc23)[C@@H](C)CN1C(c1ccc(F)cc1)c1ccc(C#N)cc1 (single isomer, unassigned) [Example 823] |  |  |  | 18000 nM | 40000 nM | 7600 nM |  |  |
| CC1CN(C(c2ccc(F)cc2)c2nc(C(C)(C)C)no2)C(C)CN1c1c(C#N)c(=O)n(C)c2ccc(C#N)nc12 (single isomer, unassigned) [Example 863] |  |  |  | 530 nM | 190 nM | 720 nM |  |  |
| CCC(c1cc(OC(F)(F)F)ccc1F)N1C[C@H](C)N(c2cc(=O)n(C)c3ccc(C#N)nc23)C[C@H]1C (stereo partly drawn) [Example 1207] | 14000 nM | 1400 nM | 13000 nM |  |  |  |  |  |
| C[C@@H]1CN(c2cc(=O)n(C)c3ccc(C#N)nc23)[C@@H](C)CN1Cc1ccc(OC(F)(F)F)c(C#N)c1 [Example 584] | 5900 nM | 7900 nM |  |  |  |  | 3400 nM |  |
| C[C@@H]1CN(c2cc(=O)n(C)c3ccc(C#N)nc23)[C@@H](C)CN1C(c1ccc(F)cc1)c1cc(C2CC2)on1 (single isomer, unassigned) [Example 730] |  |  |  | 44 nM | 640 nM |  |  | 870 nM |
| CC[C@H]1CN(C(C)c2cc(F)c(F)c(F)c2)[C@H](C)CN1c1cc(=O)n(C)c2ccc(C#N)nc12 (single isomer, unassigned) [Example 1383] | 970 nM | 480 nM |  |  |  |  | 7000 nM |  |
| C[C@@H]1CN(c2cc(=O)n(C)c3ccc(C#N)nc23)[C@@H](C)CN1C(c1ccc(F)cc1)c1cocn1 (single isomer, unassigned) [Example 709] | 670 nM | 14000 nM | 2100 nM |  |  |  |  |  |
| C[C@@H]1CN(c2cc(=O)n(C)c3ccc(C#N)nc23)[C@@H](C)CN1C(c1ccc(F)cc1)c1nccn1C (stereo partly drawn) [Example 714] | 18000 nM | 28000 nM | 3900 nM |  |  |  |  |  |
| CC[C@H]1CN(C(c2ccc(F)cc2)c2cocn2)[C@H](CC)CN1c1cc(=O)n(C)c2ccc(C#N)nc12 (single isomer, unassigned) [Example 1069] | 60 nM | 910 nM | 2100 nM |  |  |  |  |  |
| CC(c1ccc(OC(F)(F)F)c(F)c1)N1C[C@H](C)N(c2cc(=O)n(C)c3ccc(C#N)nc23)C[C@H]1C (single isomer, unassigned) [Example 1205] | 1700 nM | 2700 nM | 8000 nM |  |  |  |  |  |
| C[C@@H]1CN(c2cc(=O)[nH]c3ccc(C#N)nc23)[C@@H](C)CN1C(c1ccc(F)cc1)c1ccc(C#N)cc1 (single isomer, unassigned) [Example 1337] | 1800 nM | 8200 nM |  |  |  |  | 2700 nM |  |
| Cc1ccc(C(c2cccc(Cl)c2)N2C[C@H](C)N(c3cc(=O)n(C)c4ccc(C#N)nc34)C[C@H]2C)nc1 (stereo partly drawn) [Example 398, 8-((2S,5R)-4-((3-chlorophenyl)(5-methylpyridin-2-yl)methyl)-2,5-dimethylpiperazin-1-yl)-5-methyl-6-oxo-5,6-dihydro-1,5-naphthyridine-2-carbonitrile] | 1100 nM | 1400 nM |  |  |  |  | 410 nM |  |
